Consider 17 compounds from US10927096B2, “Ester substituted ion channel blockers and methods for use” (Nocion Therapeutics, Inc., priority 2019, dated 2021).

Molecules are shown by their SMILES.

In data set [1] the target is T1, NaV1.7 (Homo sapiens, UniProt Q15858).
T1 construct: expressed in transfected cells; host or cells: HEK293, tetracycline-inducible
Put plainly: Automated patch clamp (Qube 384), internal block of NaV1.7 in HEK293 cells. It is filed as cell-based. The following applies: compound in internal solution, read-out: NaV1.7 Intracellular Inhibition. The method, then:
(§1) NaV1.7 was expressed in HEK293 cells upon induction with tetracycline. Cells were cultured in DMEM containing 10% dialyzed Fetal Bovine Serum (VWR, Radnor, Pa.), 1% Glutamax (VWR, Radnor, Pa.), 1% Penicillin-Streptomycin (VWR, Radnor, Pa.), 100 mg/L Hygromycin (Thermo Fisher Scientific, Waltham, Mass. and 5 mg/L Blasticidin (Alfa Aesar, Haverhill, Mass.). Cells were grown and maintained at 37° C. in a humidified environment containing 10% CO2 in air. Cells were detached from the culture flask for passage and harvested using 0.05% Trypsin-EDTA (Thermo Fisher Scientific, Waltham, Mass.). To induce NaV1.7, cells were induced with tetracycline (0.1-1 μg/mL, IBI Scientific, Peosta, Iowa) the day before recording.
(§2) Before experiments, cells were washed with DPBS (VWR, Radnor, Pa.), digested with Detachin (VWR Radnor, Pa.) and then triturated 10 times in CHO Serum-Free Media (VWR Radnor, Pa.) to resuspend the cells and to break apart cell aggregates. Cells were counted and the final concentration was set at 2-5 million cells per mL.
(§3) The intracellular solution contained the following: 140 mM CsF, 1 mM/5 mM EGTA/CsOH, 10 mM HEPES, 10 mM NaCl, adjusted to pH 7.3 with CsOH, and osmolality to 320 with sucrose. The external solution contained the following: 145 mM NaCl, 4 mM KCl, 1 mM MgCl2, 2 mM CaCl2, 10 mM HEPES, 10 mM Glucose, adjusted to pH 7.4 with CsOH and osmolality to 305 with sucrose. All chemicals are from Sigma-Aldrich, St. Louis, Mo. In order to test the degree of internal block by test compounds, the compounds were dissolved in internal solution at the indicated test concentration. […] In order to test the degree of external block by test compounds the compounds were dissolved in external solution at the indicated test concentration.
(§4) Automated Patch Clamps were performed on Qube 384 (Sophion Bioscience, Woburn Mass.) with multihole Qchips at a temperature setting of 22 degrees. The whole cells configuration was formed with default Qube seal and break-in parameter. The membrane potential was held at −100 mV before the voltage protocol began. Two voltage protocols were followed.
(§5) Step 1: Cells were held at −100 mV with a depolarized pulse to −20 mV for 10 ms, the interval was set at 5 s. Currents were corrected by default leak subtraction from every pulse. The duration was set at 5 mins.
(§6) Step 2: Cells were held at −100 mV with a depolarized pulse to −20 mV for 10 ms. The frequency was 5 Hz. Currents were corrected by leak subtraction calculated before step 2. The duration was set at 4 mins.
After Step 2, the Qchip was removed from the recording chamber. The internal solution was changed with solutions containing test compounds. Qchips were held at −100 mV without pulsing after being replaced in the recording chamber. The total solution switching time was 8 minutes. After the internal solution exchange, Cells were recorded and step 2 for repeated for 10 minutes.
Data analysis was performed by Sophion Analyzer. Cells were filtered with minimum 50 MOhm seal resistance and minimum 5 nA starting current. The rundown of the currents was corrected with control cells (Non-Drug). The remaining was calculated by averaging last 3 points in the end of experiments. The base line was calculated as the average of last 3 points of Step 2. IC50 curves were plotted with DR-plots/Hill function (a dose-response plot with a Hill fit).
Representative examples of the invention were tested for intracellular inhibition of NaV 1.7 in the automated patch clamp assay. Activity Range is reported as IC50: “++++” (<1 μM), “+++” (1-3 μM), “++” (3-10 μM) or “+” (10-30 μM).
In general terms: In patch-clamp work, channel activity is measured electrically.

A short description of data set [2]: PAMPA membrane permeability assay. It counts as physicochemical. The settings on record: pH 7.4 buffer, GIT lipid, 4 hours incubation. A digest of the protocol:
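Passive diffusion across a GIT-lipid-painted artificial membrane, with compounds at 50 uM in pH 7.4 buffer in the donor well and 4 h incubation. Donor, acceptor and reference solutions were quantified by UV spectra, and permeability coefficients (10^−6 cm/s) were derived from AUCs. Results are binned as + (<0.1), ++ (0.1-2.0), +++ (2.0-10.0), ++++ (>10.0).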
(In general: The PAMPA barrier holds no transporters, so it reflects passive diffusion.)

For data set [3], the target named is T1, NaV1.7. Put plainly: Automated patch clamp (Qube 384), external block of NaV1.7 in HEK293 cells. The settings on record: compound in external solution, read-out: NaV1.7 Extracellular Inhibition. It counts as cell-based. On the procedure: as §1, §2, §3, §4, §5, §6
After Step 2, the external solution was changed with solutions containing test compounds. Qchips were held at −100 mV without pulsing. The total solution switching time was 8 minutes. After the external solution exchange, cells were recorded using the same procedure as step 2 for 10 minutes.
Data analysis was performed by Sophion Analyzer. Data were corrected with control cells (Non-Drug). The IC50 data were plotted with DR-plots/Hill function (a dose-response plot with a Hill fit).
Representative examples of the invention were tested for extracellular inhibition of NaV 1.7 in the automated patch clamp assay. Activity Range is reported as IC50: “++++” (<1 μM), “+++” (1-10 μM), “++” (10-30 μM) or “+” (>30 μM).

T1 sequence (Q15858 whole entry): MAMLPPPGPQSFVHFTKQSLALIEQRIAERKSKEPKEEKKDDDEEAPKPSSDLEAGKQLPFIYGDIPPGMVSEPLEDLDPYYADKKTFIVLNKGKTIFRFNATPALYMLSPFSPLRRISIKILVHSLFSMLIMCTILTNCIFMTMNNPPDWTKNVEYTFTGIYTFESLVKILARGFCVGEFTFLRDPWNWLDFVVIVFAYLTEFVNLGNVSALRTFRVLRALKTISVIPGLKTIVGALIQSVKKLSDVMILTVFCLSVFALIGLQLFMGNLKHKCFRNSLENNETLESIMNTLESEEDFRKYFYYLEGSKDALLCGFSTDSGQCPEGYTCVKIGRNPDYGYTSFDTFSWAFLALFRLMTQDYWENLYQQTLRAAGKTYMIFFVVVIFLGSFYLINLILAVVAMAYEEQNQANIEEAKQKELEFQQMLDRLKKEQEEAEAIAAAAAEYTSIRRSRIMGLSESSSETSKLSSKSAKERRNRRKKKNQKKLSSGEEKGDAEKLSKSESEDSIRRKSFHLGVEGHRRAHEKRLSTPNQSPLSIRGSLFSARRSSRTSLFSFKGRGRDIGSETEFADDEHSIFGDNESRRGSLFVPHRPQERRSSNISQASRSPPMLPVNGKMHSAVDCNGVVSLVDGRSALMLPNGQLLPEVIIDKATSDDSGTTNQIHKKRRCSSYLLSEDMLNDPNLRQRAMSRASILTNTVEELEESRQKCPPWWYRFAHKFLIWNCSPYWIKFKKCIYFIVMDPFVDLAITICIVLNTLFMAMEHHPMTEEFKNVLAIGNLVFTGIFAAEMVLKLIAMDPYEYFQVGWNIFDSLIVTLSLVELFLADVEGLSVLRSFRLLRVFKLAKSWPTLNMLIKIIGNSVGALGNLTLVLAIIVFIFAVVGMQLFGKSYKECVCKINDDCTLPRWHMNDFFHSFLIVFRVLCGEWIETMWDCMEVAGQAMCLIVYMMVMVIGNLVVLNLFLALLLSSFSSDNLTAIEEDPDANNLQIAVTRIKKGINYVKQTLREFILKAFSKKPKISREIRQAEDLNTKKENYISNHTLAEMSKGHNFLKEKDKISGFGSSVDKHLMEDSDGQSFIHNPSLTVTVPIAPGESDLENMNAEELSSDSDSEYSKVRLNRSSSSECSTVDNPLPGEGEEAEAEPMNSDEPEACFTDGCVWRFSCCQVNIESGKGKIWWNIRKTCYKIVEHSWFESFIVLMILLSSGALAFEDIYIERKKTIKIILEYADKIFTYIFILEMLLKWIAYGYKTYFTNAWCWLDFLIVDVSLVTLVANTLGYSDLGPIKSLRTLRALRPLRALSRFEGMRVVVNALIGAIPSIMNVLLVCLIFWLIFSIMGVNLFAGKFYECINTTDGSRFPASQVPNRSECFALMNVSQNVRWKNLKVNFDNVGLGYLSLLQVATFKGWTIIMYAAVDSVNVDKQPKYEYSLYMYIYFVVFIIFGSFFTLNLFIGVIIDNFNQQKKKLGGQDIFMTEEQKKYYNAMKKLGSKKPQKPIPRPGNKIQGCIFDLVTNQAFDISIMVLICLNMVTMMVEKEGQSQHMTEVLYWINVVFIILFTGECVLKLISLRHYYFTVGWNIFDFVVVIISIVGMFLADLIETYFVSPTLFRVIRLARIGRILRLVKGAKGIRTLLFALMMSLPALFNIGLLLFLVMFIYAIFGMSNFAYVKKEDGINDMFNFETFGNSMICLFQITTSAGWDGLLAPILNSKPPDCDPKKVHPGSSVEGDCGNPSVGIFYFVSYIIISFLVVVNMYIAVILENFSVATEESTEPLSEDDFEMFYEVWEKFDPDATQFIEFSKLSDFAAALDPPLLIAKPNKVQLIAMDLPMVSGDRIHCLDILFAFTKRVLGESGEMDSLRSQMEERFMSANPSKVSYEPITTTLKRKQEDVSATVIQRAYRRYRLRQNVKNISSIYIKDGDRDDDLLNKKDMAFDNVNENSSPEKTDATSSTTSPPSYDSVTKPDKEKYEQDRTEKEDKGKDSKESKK

For `COC(=O)c1cccc(C)c1NC(=O)C[N+]1(Cc2ccccc2)CCCCCC1` [Compound 1], the IC50 at NaV1.7 [1] is below 1000 nM; at NaV1.7 [3] it was 1000 to 10000 nM. For the same compound, the “PAMPA (10^−6 cm/s)” value in data set [2] is “+ (<0.1 10^−6 cm/s)”.
As for `CCOC(=O)c1cccc(C)c1NC(=O)C[N+]1(Cc2ccccc2)CCCCCC1` [Compound 2], the results for the IC50 on NaV1.7 [1] and on NaV1.7 [3] were below 1000 nM and 1000 to 10000 nM, respectively. In addition, the “PAMPA (10^−6 cm/s)” value in data set [2] is reported as “+ (<0.1 10^−6 cm/s)”.
The corresponding values for `CC[N+]1(CC(=O)Nc2c(C)cccc2C(=O)OC)CCCC(c2ccccc2)C1` (mixture of isomers) [Compound 65] are below 1000 nM, 10000 to 30000 nM and “+ (<0.1 10^−6 cm/s)”.
The corresponding values for `CCC(C(=O)Nc1c(C)cccc1C(=O)OC)[N+]1(Cc2ccccc2)CCCCC1` (stereo not drawn) [Compound 57] are 1000 to 3000 nM, above 30000 nM and “+ (<0.1 10^−6 cm/s)”.
For `CCOC(=O)C[N+]1(CC(=O)Nc2c(C)cccc2C(=O)OC)CCCC(c2ccccc2)C1.O=C([O-])C(F)(F)F` (stereo not drawn) [Compound 63], in that order: below 1000 nM, 1000 to 10000 nM and “+++ (2.0-10.010^−6 cm/s)”.
In the case of `CNC(=O)C1CCC[N+](CC(=O)Nc2c(C)cccc2C(=O)OC)(Cc2ccccc2)C1` (mixture of isomers) [Compound 31], the IC50 was below 1000 nM at NaV1.7 [1] and above 30000 nM on NaV1.7 [3]. In addition, in data set [2], the “PAMPA (10^−6 cm/s)” value is recorded as “+ (<0.1 10^−6 cm/s)”.
With `CC[N+]1(CC(=O)Nc2c(C)cccc2C(=O)OC)CCCC(C(N)=O)C1.[I-]` (stereo not drawn) [Compound 55], the IC50 on NaV1.7 [1] was 3000 to 10000 nM; at NaV1.7 [3] it was above 30000 nM. Besides, in data set [2], the “PAMPA (10^−6 cm/s)” value was “+ (<0.1 10^−6 cm/s)”.
The corresponding values for `CCOC(=O)c1cccc(C)c1NC(=O)C[N+]1(Cc2ccccc2)CCCCC1.[Br-]` [Compound 4] are below 1000 nM, 1000 to 10000 nM and “+ (<0.1 10^−6 cm/s)”.
The corresponding values for `CCOC(=O)c1cccc(C)c1NC(=O)C[N+]1(Cc2ccccc2)CCCC1.[Br-]` [Compound 9] are below 1000 nM, 1000 to 10000 nM and “+ (<0.1 10^−6 cm/s)”.
For `COC(=O)c1cccc(C)c1NC(=O)C[N+]1(Cc2ccccc2)CCCC(C(=O)NCC(C)C)C1.[Br-]` (stereo not drawn) [Compound 36], in that order: 1000 to 3000 nM, 10000 to 30000 nM and “+++ (2.0-10.010^−6 cm/s)”.
On to `COC(=O)c1cccc(C)c1NC(=O)C[N+]1(Cc2ccccc2)CCCC1` [Compound 5], for which the IC50 at NaV1.7 [1] is 1000 to 3000 nM; on NaV1.7 [3] it was above 30000 nM. Moreover, the “PAMPA (10^−6 cm/s)” value in data set [2] is listed as “+++ (2.0-10.010^−6 cm/s)”.
The corresponding values for `Cc1cccc(C(=O)OC(C)(C)C)c1NC(=O)C[n+]1cccn1C1CCCCC1.[Br-]` [Compound 72] are 1000 to 3000 nM, 1000 to 10000 nM and “+ (<0.1 10^−6 cm/s)”.
For `Cc1cccc(C(=O)OC(C)C)c1NC(=O)C[N+]1(Cc2ccccc2)CCCCCC1.[Br-]` [Compound 7], in that order: below 1000 nM, 1000 to 10000 nM and “+ (<0.1 10^−6 cm/s)”.
For `CC[N+]1(CC(=O)Nc2c(C)cccc2C(=O)OC)CCCC(C(=O)OCC(C)C)C1.[I-]` (stereo not drawn) [Compound 23], in that order: below 1000 nM, above 30000 nM and “+ (<0.1 10^−6 cm/s)”.
For `COC(=O)c1cccc(C)c1NC(=O)C[n+]1cccn1C1CCCCC1.[Br-]` [Compound 69], the IC50 is below 1000 nM on NaV1.7 [1] and above 30000 nM at NaV1.7 [3]. Moreover, the “PAMPA (10^−6 cm/s)” value in data set [2] was “++ (0.1-2.0 10^−6 cm/s)”.
For `CCCNC(=O)C1CCC[N+](CC(=O)Nc2c(C)cccc2C(=O)OC)(Cc2ccccc2)C1` (mixture of isomers) [Compound 28], in that order: below 1000 nM, 10000 to 30000 nM and “+++ (2.0-10.010^−6 cm/s)”.
On to `COC(=O)c1cccc(C)c1NC(=O)C[n+]1cccc(-c2ccccc2)c1.[Br-]` [Compound 66], for which the IC50 on NaV1.7 [1] is below 1000 nM; on NaV1.7 [3] it was 10000 to 30000 nM. The “PAMPA (10^−6 cm/s)” value in data set [2] was “+ (<0.1 10^−6 cm/s)”.
